Reference: ChEMBL document CHEMBL4152208, “Synthesis and structure-activity relationships of quinolinone and quinoline-based P2X7 receptor antagonists and their anti-sphere formation activities in glioblastoma cells” (Eur J Med Chem, 2018)
Calls of active or inactive are those of the source. The rule behind the calls is not given here.

Experiments:
[1] = Inhibition of neurosphere formation in human TS15-88 cells assessed as decrease in sphere size at 50 uM after 5 days by microscopic analysis relative to control; assay type: functional; details: 120 h
[2] = Cytotoxicity against HEK293 cells expressing human P2X7 receptor assessed as cell survival at 10 uM by MTT assay relative to control; assay type: cell-based; details: read-out: Survival
[3] = target: T1, P2X purinoceptor 1 (Homo sapiens) (UniProt P51575); assay: Antagonist activity at human P2X1 receptor expressed in 1321N1 cells assessed as inhibition of ATP-induced calcium flux at 1 uM measured for 30 secs at 0.4 secs intervals by Flou-4-AM dye based fluorescence assay relative to control; assay type: cell-based
T1 sequence (whole entry): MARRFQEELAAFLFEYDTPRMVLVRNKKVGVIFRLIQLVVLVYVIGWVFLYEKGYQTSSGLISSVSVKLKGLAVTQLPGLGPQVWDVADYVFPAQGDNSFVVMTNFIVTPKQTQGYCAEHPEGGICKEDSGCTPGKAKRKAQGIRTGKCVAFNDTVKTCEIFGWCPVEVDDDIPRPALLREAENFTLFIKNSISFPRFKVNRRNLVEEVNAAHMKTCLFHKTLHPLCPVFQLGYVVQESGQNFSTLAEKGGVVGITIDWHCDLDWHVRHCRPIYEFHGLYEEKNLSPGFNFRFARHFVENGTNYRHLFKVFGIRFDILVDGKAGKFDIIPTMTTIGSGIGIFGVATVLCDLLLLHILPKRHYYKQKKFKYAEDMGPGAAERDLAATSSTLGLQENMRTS

P2X purinoceptor 3 = target: T2, P2X purinoceptor 3 (Homo sapiens, UniProt P56373); assay: Antagonist activity at human P2X3 receptor expressed in 1321N1 cells assessed as inhibition of ATP-induced calcium flux measured for 30 secs at 0.4 secs intervals by Flou-4-AM dye based fluorescence assay; assay type: cell-based; details: read-out: IC50
T2 sequence (P56373 whole entry): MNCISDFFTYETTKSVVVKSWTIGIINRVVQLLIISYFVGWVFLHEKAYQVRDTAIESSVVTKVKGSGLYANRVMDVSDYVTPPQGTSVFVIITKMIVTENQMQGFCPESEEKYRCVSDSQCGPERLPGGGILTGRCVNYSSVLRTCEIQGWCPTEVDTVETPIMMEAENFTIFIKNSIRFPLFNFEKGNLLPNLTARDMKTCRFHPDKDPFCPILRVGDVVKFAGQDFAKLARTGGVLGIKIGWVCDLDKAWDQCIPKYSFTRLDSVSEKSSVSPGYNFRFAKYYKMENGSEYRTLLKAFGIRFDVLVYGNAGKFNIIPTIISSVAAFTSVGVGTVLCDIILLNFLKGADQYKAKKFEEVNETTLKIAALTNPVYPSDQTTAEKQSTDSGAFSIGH

[4] = target: T3, P2X purinoceptor 7 (Homo sapiens) (UniProt Q99572); assay: Antagonist activity at human P2X7 receptor expressed in HEK293 cells assessed as inhibition of BzATP-induced EtBr uptake at 1 uM after 2 hrs by fluorescence assay relative to control; assay type: cell-based
T3 sequence (whole entry): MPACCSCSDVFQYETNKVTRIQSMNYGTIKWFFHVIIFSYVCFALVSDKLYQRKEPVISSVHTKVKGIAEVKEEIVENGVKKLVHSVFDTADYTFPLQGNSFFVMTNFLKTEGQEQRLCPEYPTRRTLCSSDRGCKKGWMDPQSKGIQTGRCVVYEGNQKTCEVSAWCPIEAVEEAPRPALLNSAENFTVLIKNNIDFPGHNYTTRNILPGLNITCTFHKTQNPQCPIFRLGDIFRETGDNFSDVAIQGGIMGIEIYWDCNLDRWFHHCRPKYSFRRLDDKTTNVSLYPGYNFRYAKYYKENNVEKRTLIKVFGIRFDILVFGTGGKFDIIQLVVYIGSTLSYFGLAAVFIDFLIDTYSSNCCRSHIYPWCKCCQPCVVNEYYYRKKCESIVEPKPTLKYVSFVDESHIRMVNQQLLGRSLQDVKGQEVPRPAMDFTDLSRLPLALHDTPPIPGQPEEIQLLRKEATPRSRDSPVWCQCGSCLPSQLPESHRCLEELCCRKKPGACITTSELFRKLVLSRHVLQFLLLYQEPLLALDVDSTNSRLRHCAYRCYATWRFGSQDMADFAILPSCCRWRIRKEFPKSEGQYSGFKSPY

Homo sapiens [5] = species: Homo sapiens; assay: Antiproliferative activity against human TS15-88 cells at 50 uM after 72 hrs by MTS assay; assay type: functional, cell-based
[6] = target: T3, P2X purinoceptor 7 (Homo sapiens); assay: Antagonist activity at human P2X7 receptor expressed in HEK293 cells assessed as inhibition of BzATP-induced EtBr uptake at 10 uM after 2 hrs by fluorescence assay relative to control; assay type: cell-based
P2X purinoceptor 7 [7] = target: T4, P2X purinoceptor 7 (Homo sapiens, UniProt Q99572); assay: Antagonist activity at P2X7 in LPS/IFN gamma differentiated human THP-1 cells assessed as inhibition of BzATP-induced IL-1beta release preincubated for 30 mins followed by BzATP stimulation for 30 mins by ELISA; assay type: cell-based
T4 sequence (Q99572 whole entry): T3 sequence (whole entry)

Homo sapiens [8] = species: Homo sapiens; assay: Antiproliferative activity against human TS15-88 cells at 50 uM after 24 hrs by MTS assay; assay type: functional, cell-based
[9] = target: T5, P2X purinoceptor 4 (Homo sapiens) (UniProt Q99571); assay: Antagonist activity at human P2X4 receptor expressed in 1321N1 cells assessed as inhibition of ATP-induced calcium flux at 1 uM measured for 30 secs at 0.4 secs intervals by Flou-4-AM dye based fluorescence assay relative to control; assay type: cell-based
T5 sequence (whole entry): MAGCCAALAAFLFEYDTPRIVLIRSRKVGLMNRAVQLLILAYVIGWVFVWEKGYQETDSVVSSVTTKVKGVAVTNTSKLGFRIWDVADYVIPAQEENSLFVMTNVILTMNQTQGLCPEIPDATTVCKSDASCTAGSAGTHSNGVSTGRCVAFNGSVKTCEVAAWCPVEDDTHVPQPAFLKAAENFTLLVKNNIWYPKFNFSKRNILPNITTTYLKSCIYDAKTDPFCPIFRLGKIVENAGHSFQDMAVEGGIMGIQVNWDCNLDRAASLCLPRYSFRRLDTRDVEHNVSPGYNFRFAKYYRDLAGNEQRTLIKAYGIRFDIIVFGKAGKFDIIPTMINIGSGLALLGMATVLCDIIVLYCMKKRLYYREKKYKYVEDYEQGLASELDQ

[10] = target: T6, P2X purinoceptor 2 (Homo sapiens) (UniProt Q9UBL9); assay: Antagonist activity at human P2X2 receptor expressed in 1321N1 cells assessed as inhibition of ATP-induced calcium flux at 1 uM measured for 30 secs at 0.4 secs intervals by Flou-4-AM dye based fluorescence assay relative to control; assay type: cell-based
T6 sequence (whole entry): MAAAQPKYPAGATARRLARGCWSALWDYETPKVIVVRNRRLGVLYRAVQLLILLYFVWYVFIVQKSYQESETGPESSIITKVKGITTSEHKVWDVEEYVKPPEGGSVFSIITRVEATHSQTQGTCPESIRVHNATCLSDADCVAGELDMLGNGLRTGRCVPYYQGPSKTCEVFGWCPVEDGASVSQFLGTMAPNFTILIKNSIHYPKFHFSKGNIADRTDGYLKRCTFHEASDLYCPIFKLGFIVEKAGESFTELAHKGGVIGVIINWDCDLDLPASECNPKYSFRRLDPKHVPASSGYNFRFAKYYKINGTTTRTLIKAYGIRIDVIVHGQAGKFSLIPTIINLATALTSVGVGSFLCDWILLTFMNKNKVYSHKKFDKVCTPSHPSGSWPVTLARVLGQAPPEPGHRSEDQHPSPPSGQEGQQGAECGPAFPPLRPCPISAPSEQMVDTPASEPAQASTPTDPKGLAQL

P2X purinoceptor 7 [11] = target: T4, P2X purinoceptor 7; assay: Antagonist activity at human P2X7 receptor expressed in HEK293 cells assessed as inhibition of BzATP-induced EtBr uptake after 2 hrs by fluorescence assay relative to control; assay type: cell-based
[12] = Antiproliferative activity against human TS15-88 cells after 24 to 72 hrs by MTS assay; assay type: functional, cell-based
[13] = Kinetic solubility of the compound in PAMPA buffer at 25 uM by nepheolometry method; assay type: physicochemical
[14] = Metabolic stability in mouse liver microsomes assessed as parent compound remaining at 1 uM up to 30 mins in presence of NADPH by LC-MS/MS analysis; assay type: ADME, microsome; details: read-out: Stability
[15] = Metabolic stability in rat liver microsomes assessed as parent compound remaining at 1 uM up to 30 mins in presence of NADPH by LC-MS/MS analysis; assay type: ADME, microsome; details: read-out: Stability
[16] = Kinetic solubility of the compound in PAMPA buffer at 12.5 uM by nepheolometry method; assay type: physicochemical
[17] = Kinetic solubility of the compound in PAMPA buffer at 50 uM by nepheolometry method; assay type: physicochemical
[18] = Effective permeability of the compound at 50 uM after 4 hrs by BBB-PAMPA method; assay type: ADME; details: read-out: Peff
[19] = Metabolic stability in human liver microsomes assessed as parent compound remaining at 1 uM up to 30 mins in presence of NADPH by LC-MS/MS analysis; assay type: ADME, microsome; details: read-out: Stability
P2X purinoceptor 7 [20] = target: T4, P2X purinoceptor 7; assay: Antagonist activity at human P2X7 receptor in expressed in HEK293 cells assessed as inhibition of BzATP-induced EtBr uptake; assay type: cell-based
[21] = target: T3, P2X purinoceptor 7 (Homo sapiens); assay: Antagonist activity at P2X7 in LPS/IFN gamma differentiated human THP-1 cells assessed as inhibition of BzATP-induced IL-1beta release at 1 uM preincubated for 30 mins followed by BzATP stimulation for 30 mins by ELISA; assay type: cell-based
[22] = target: T3, P2X purinoceptor 7 (Homo sapiens); assay: Antagonist activity at P2X7 in LPS/IFN gamma differentiated human THP-1 cells assessed as inhibition of BzATP-induced IL-1beta release at 10 uM preincubated for 30 mins followed by BzATP stimulation for 30 mins by ELISA; assay type: cell-based

Row | Structure (SMILES) | inhibition at 50 µM [1] [%] | viability at 10 µM [2] [%] | inhibition [4] [%] | Activity (Homo sapiens [5]) | inhibition [6] [%] | IC50 (P2X purinoceptor 7 [7]) [nM] | Activity (Homo sapiens [8]) | IC50 (P2X purinoceptor 7 [11]) [nM] | inhibition [21] | inhibition [22] [%] | other results
1 | COc1ccc(-c2ccc3c(NC(=O)CC45CC6CC(CC(C6)C4)C5)cccc3n2)cc1 | > 50 | 90 | 89 | Active | 97 | 29 | inactive | 18 |  |  | inhibition [3]: 25%; IC50 (P2X purinoceptor 3): 3000 nM; inhibition [9]: 17%; inhibition [10]: 3%
2 | O=C(CC12CC3CC(CC(C3)C1)C2)Nc1cccc2nc(-c3ccc(O)cc3)ccc12 | > 50 | 94 | 79 | Active | 95 | 6 | Active | 8 |  |  | IC50 [12]: 25600 nM; Kinetic_solubility [13]: Soluble; remaining at 0.5 h, 1 µM [14]: 14.5%; remaining at 0.5 h, 1 µM [15]: 12.9%; Kinetic_solubility [16]: Soluble; Kinetic_solubility [17]: Soluble; Papp at 4 h, 50 µM [18]: 16.4 ×10⁻⁶ cm/s; remaining at 0.5 h, 1 µM [19]: 21.5%
3 | Clc1cccc(-c2nnnn2Cc2cccnc2)c1Cl |  |  |  |  |  |  |  |  |  |  | IC50 (P2X purinoceptor 7 [20]): 300 nM
4 | COC(=O)c1ccc(-c2ccc3c(NC(=O)CC45CC6CC(CC(C6)C4)C5)cccc3n2)cc1 | > 50 | 97 | 90 | Active | 95 | 33 | Active | 7 |  |  | IC50 [12]: 35600 nM
5 | COC(=O)c1cc2c(NC(=O)C34CC5CC(CC(C5)C3)C4)cccc2n(Cc2ccc([N+](=O)[O-])cc2)c1=O |  |  | 61 |  | 85 |  |  | 809 | 38% | 42 | 
6 | COC(=O)c1cc2c(NC(=O)C34CC5CC(CC(C5)C3)C4)cccc2n(Cc2ccc(OC)cc2)c1=O |  |  | 76 |  | 87 |  |  | 120 | inactive | 49 | 
7 | CC(=O)[C@H]1CC[C@H]2[C@@H]3CCC4=CC(=O)CC[C@]4(C)[C@H]3CC[C@]12C [PROGESTERONE] |  |  |  |  |  |  |  |  |  |  | IC50 (P2X purinoceptor 3): 1600 nM; Papp at 4 h, 50 µM [18]: 36.6 ×10⁻⁶ cm/s
8 | CCOC(=O)c1cc2c(NC(=O)C34CC5CC(CC(C5)C3)C4)cccc2n(Cc2ccc(OC)cc2)c1=O |  |  | 86 |  | 88 |  |  | 62 | 7% | 44 | 
